According to PMC11473290, “1,3,4-oxadiazoles as inhibitors of the atypical member of the BET family bromodomain factor 3 from Trypanosoma cruzi (TcBDF3)” (Frontiers in Microbiology, 2024):
Like-named read-outs stand apart in the source and are kept apart here.

Tests used:
TcBDF3 [1] = target: T1, TcBDF3 (Trypanosoma cruzi, UniProt Q4DXV1); experiment: Fluorescence polarization (FP) assay, displacement of BSP-AF488 probe; type: binding; settings: 0.5 μM BSP-AF488, 100-μM TcBDF3
Procedure: FP measurement was performed on a Cary Eclipse spectrophotometer equipped with a polarizer at an excitation wavelength of 488 nm and an emission wavelength of […] in a 3-ml fluorescence cuvette. The essay was set at a final volume of 2 mL, 0.5 μM of BSP-AF488, 100-μM TcBDF3, phosphate pH = 8, glycerol 1%, and DMSO 0.5%. The FP values were plotted against the log of the compound concentrations in a non-linear regression model in GraphPad Prism 9.0 as previously described ([Zhang et al., 2002]). In this assay, A1B4, A1B4c, and A5B4c were used. Briefly, free and bound probes (BSP-AF488 in the presence of TcBDF3) were included in each replica. Since the intensity of the probe remains similar for all samples, the fraction of the probe bound to TcBDF3 is correlated to the mP value. Thus, the percentage of inhibition can be derived from the equation % inhibition =100[1 − (mP − mPf)/(mPb − mPf)], in which mPf is the free probe control and mPb is the bound probe control. Based on the percentage of inhibition, the inhibitory concentration (IC50), or the inhibitor concentration at which 50% of the bound probe is displaced, is obtained by fitting the inhibition data.

[2] = tested on: TcBD2 (recombinant bromodomain of TcBDF2); experiment: Tryptophan intrinsic fluorescence quenching assay; type: binding, Trypanosoma cruzi; settings: 10-μM protein; 5, 10 and 20 μM compound; cut-off 0.9 normalized units
Procedure: (§1) 96-well black microplates with 10-μM recombinant proteins (TcBDF3, TcBDF3m, TcBD3, and TcBD2) and three concentrations of each compound were used (5, 10, and 20 μM). In this assay, A1B4 and iBET-151 (positive control) were used. All determinations were made from the top with an excitation wavelength of 275 and a 340/30 nm emission filter, 50 reads per well, and a PMT-sensitivity setting of 180 in a Synergy HT multidetection microplate reader equipped with time-resolved capable optics. Each condition was tested in triplicates, and normalized maximum fluorescence intensityvs. Concentration was plotted using GraphPad Prism 9.0. The relative fluorescence intensity obtained to the condition without the inhibitor was normalized.

[3] = tested on: TcBD3 (bromodomain of TcBDF3, amino acids 1-151); experiment: Tryptophan intrinsic fluorescence quenching assay; type: binding, Trypanosoma cruzi; settings: 10-μM protein; 5, 10 and 20 μM compound; cut-off 0.9 normalized units
Procedure: as §1

[4] = tested on: TcBDF3m (Y123A and L130A); experiment: Tryptophan intrinsic fluorescence quenching assay; type: binding, Trypanosoma cruzi; settings: 10-μM protein; 5, 10 and 20 μM compound; cut-off 0.9 normalized units
Procedure: as §1

TcBDF3 [5] = target: T1, TcBDF3; settings: full-length TcBDF3; previously published; ref García et al., 2018; read-out: Kd ± SD DSF; cited from earlier work
[6] = tested on: T. cruzi Dm28c epimastigotes; set-up: method as in García et al., 2018; settings: already published, ref García et al., 2018, cited from earlier work
[7] = tested on: T. cruzi Dm28c trypomastigotes; set-up: method as in García et al., 2018; settings: already published, ref García et al., 2018, cited from earlier work
[8] = tested on: T. cruzi Dm28c amastigotes; set-up: method as in García et al., 2018; settings: already published, ref García et al., 2018, cited from earlier work
Vero cells = tested on: Vero cells; set-up: method as in García et al., 2018; settings: MTT; already published; ref García et al., 2018; cited from earlier work
TcBDF3 [9] = target: T1, TcBDF3; experiment: Thermal shift assay (DSF), dissociation constants; type: binding; settings: full-length TcBDF3; SD from three independent experiments
Procedure: The proteins were buffered in 10-mM HEPES, pH 7.5, and 500 mM NaCl and assayed in a 48-well plate at a final concentration of 2 μM in a volume of 20 μL. Compounds were added at a final concentration between 1 and 200 μM to calculate dissociation constants. In this assay, A1B4, A1B4c, A5B4 and A5B4c were used. SYPRO Orange (Invitrogen) was added as a fluorescence probe at a dilution of 1:1000. The excitation and emission filters for the SYPRO Orange dye were set at 465 and 590 nm, respectively. The temperature was increased with steps of 2°C/min from 25°C to 96°C, and fluorescence readings were taken at each interval in a CFX Opus 96 Real-Time System (Biorad) and analyzed using Maestro Software (Biorad). The melting curves and average melting temperature for each condition were obtained and plotted in temperature vs. concentration graphs in GraphPad Prism 9.0. Plots were fitted using the differential fluorescence scanning (DSF) single binding site equation to obtain the dissociation constants (Kd) in GraphPad Prism 9.0.

[10] = tested on: T. cruzi Dm28c epimastigotes; experiment: Beta-galactosidase assay, epimastigotes; type: cell-based, Trypanosoma cruzi; settings: for SI (E), CC50/IC50 epimastigotes: CC50 Vero cells / IC50; for IC50: Dm28c strain expressing β-galactosidase, read-out: IC50 ± SD Epimastigotes
Procedure: (§2) T. cruzi Dm28c that expresses the E. coli LacZ gene epimastigotes, trypomastigotes, and amastigotes were cultured and obtained as previously described ([Buckner et al., 1996]; [Alonso et al., 2021]). […] The controls included for the amastigotes (intracellular stage) were (a) uninfected cells and (b) infected with 1 μg/mL benznidazole (BZ) (positive control) and 1% DMSO to evaluate the toxicity of the solvent. For epimastigotes and trypomastigotes, the controls used were: 1-μg/ml benznidazole (BZ) (positive control) and 1% DMSO to evaluate solvent toxicity. Results obtained with this assay were verified by manually counting the parasites. The results were expressed as the percentage of inhibition of T. cruzi growth in compound-treated infected cells compared to untreated infected cells for amastigotes. For epimastigotes and trypomastigotes, treated and untreated cultured parasites were compared. Quadruplicates were run in the same microplate and repeated in three experiments. Half-maximal IC50 values were calculated using non-linear regression on GraphPad Prism 9.0, as previously described ([Alonso et al., 2021]).

[11] = tested on: T. cruzi Dm28c trypomastigotes; experiment: Beta-galactosidase assay, trypomastigotes; type: cell-based, Trypanosoma cruzi; settings: for SI (T), CC50/IC50 trypomastigotes: CC50 Vero cells / IC50
Procedure: as §2

[12] = tested on: T. cruzi Dm28c amastigotes; experiment: Beta-galactosidase assay, amastigotes in Vero cells; type: cell-based, Trypanosoma cruzi; settings: for SI (A), CC50/IC50 amastigotes: CC50 Vero cells / IC50; for IC50: Dm28c strain expressing β-galactosidase, 48 h postinfection of Vero cells, read-out: IC50 ± SD Amastigotes
Procedure: as §2

[13] = MTT assay, cell viability; type: cell-based; settings: African green monkey, Vero cells
Procedure: The 3-(4,5-dimethylthiazol-2-yl)-2,5-diphenyltetrazolium bromide (MTT) reduction assay determined cell viability after treatment as previously described ([García et al., 2018]). Optical density (OD) was spectrophotometrically quantified (λ = 540 nm) using a Synergy HT multidetection microplate reader. DMSO was used as blank, and each treatment was performed in triplicates. The 50% cytotoxic concentration (CC50) values were calculated by non-linear regression on GraphPad Prism 9.0, and the selectivity indexes (SI) were determined as the ratio CC50/IC50 in all three life cycle stages.

T1 sequence (Q4DXV1 entry or part of it): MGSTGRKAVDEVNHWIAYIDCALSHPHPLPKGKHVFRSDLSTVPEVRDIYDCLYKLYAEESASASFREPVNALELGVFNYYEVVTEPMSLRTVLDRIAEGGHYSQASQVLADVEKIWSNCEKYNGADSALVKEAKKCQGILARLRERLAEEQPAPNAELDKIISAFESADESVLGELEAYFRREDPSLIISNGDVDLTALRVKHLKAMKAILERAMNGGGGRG

Row | Structure (SMILES) | IC50 (TcBDF3 [1]) [µM] | Kd (TcBDF3 [9]) [µM] | SI (E), CC50/IC50 epimastigotes [10] | IC50 ([10]; Trypanosoma cruzi) [µM] | SI (T), CC50/IC50 trypomastigotes [11] | SI (A), CC50/IC50 amastigotes [12] | IC50 ([12]; Trypanosoma cruzi, Vero, 48 h) [µM] | CC50 [13] [µM] | other results
1 | COc1cc(/C=N/NC(=O)c2cccs2)ccc1O [A1B4, (E)-N′-(4-hydroxy-3-methoxybenzylidene)thiophene-2-carbohydrazide] | 2.4 ± 0.3 | – | – | – | – | – | – | – | Binding (fluorescence quenching) [2]: did not bind; Binding (fluorescence quenching) [3]: binds; Binding (fluorescence quenching) [4]: did not bind; Kd (TcBDF3 [5]): 1.7 ± 0.2 µM; IC50 ([6]; Dm28c strain expressing β-galactosidase, read-out: IC50 ± SD Epimastigotes): 23 ± 2.04 µM; SI (E), CC50/IC50 epimastigotes [6]: 11.7; IC50 ([7]; Dm28c strain expressing β-galactosidase, read-out: IC50 ± SD Tripomastigotes): 17.8 ± 2.13 µM; SI (T), CC50/IC50 trypomastigotes [7]: 15; IC50 ([8]; Dm28c strain expressing β-galactosidase, read-out: IC50 ± SD Amastigotes): 13.1 ± 1.43 µM; SI (A), CC50/IC50 amastigotes [8]: 20.5; CC50 (Vero cells): 269 ± 4.28 µM
2 | COc1cc(-c2nnc(-c3cccs3)o2)ccc1O [A1B4c, 2-methoxy-4-(5-(thiophen-2-yl)-1,3,4-oxadiazol-2-yl)phenol] | 8.4 ± 0.5 | 4 ± 0.3 | 11 | < 10 | 54.4 | 13 | < 10 | 90.8 ± 3.54 | IC50 [10]: 8.13 ± 0.87 µM; IC50 [12]: 6.9 ± 0.67 µM; melting point: 224 °C
3 | O=C(N/N=C/c1ccc(CO)o1)c1cccs1 [A5B4, (E/Z)-N′-((5-(hydroxymethyl)furan-2-yl)methylene) thiophene-2-carbohydrazide] | – | 136 ± 2.4 | – | – | – | – | – | – | –
4 | OCc1ccc(-c2nnc(-c3cccs3)o2)o1 [A5B4c, (5-(5-(thiophene-2-yl)-1,3,4-oxadiazol-2-yl)furan-2-yl)methanol] | 10.5 ± 0.9 | 4.8 ± 0.2 | 21.3 | 14.8 ± 1.38 | 23.5 | 37 | 8.49 ± 1.63 | 316 ± 4.35 | IC50 ([11]; Trypanosoma cruzi, Dm28c strain expressing β-galactosidase, read-out: IC50 ± SD Tripomastigotes): 13.4 ± 1.25 µM
